Key:
Solubility in water = assay type: physicochemical
[1] = system: nude, immunodeficient Bg-Nu-XID female mice; assay: Intramuscular osteoinduction: implants in biceps femoris of immunodeficient mice, histology after 8 weeks; assay type: in vivo
Protocol: Mice were divided into groups according to the experimental design: i) uninduced hMSCs that were treated with vehicle alone (i.e., 0.1% DMSO, final concentration) for 8 days then combined with TCP ceramic matrix, and ii) induced hMSCs that were treated with 3 (500 nM) in the presence of TCP ceramic matrix (5 mg/mL) for 8 days, and iii) TCP ceramic matrix (i.e. no cells) mock cultured for 8 days. The TCP ceramic matrix used was […] granules. […] MEM medium was added to existing PBS (pH 6.5) cell incubations to effect a 500 nM final concentration.
Isolation of Compound-Induced hMSCs and their Cryopreservation (FIG. 5, Steps 4-5). At the end of an 8-day cell culture period, the cells were washed three times with 1 ml PBS (50 mM, pH 7.4), and removed from the 6-well plate by trypsinization. For induced cells, the TCP granules that remained on the plate were retained. After three washes with PBS (50 mM, pH 7.4), cells were centrifuged at 1200× g for 3 min. The cell pellet was recombined with TCP ceramic taken from cell culture and the mixture was suspended in 1 mL freezing medium (MEM essential containing 20% FBS and 5% DMSO). Before cryopreservation of the cell-TCP mixture in liquid nitrogen, a 10 μl aliquot of each sample was taken and used to count the cells, or to confirm ALP functional activity and mRNA biomarker expression (i.e., Osteocalcin, Collagen I) in advance of implantation.
Preparation of Implants for Surgery (FIG. 5, Steps i and ii). On the day of surgery, implants comprised of either i) TCP ceramic matrix, ii) hMSCs (0.5 million) and 5 mg TCP ceramic matrix, or iii) compound-induced hMSCs (0.5 million) and 5 mg TCP ceramic matrix were prepared for transplantation. Frozen cell/ceramic suspensions were thawed and washed three times with PBS (50 mM, pH 7.4). All implants were combined with a bioadhesive just prior to implantation in mice. […]
Surgical Implantation of Compositions of the Invention (FIG. 5, Step iii). […] Mice were monitored throughout surgery and thereafter for maintenance of the surgical plane of anesthesia. […]

Wnt transcription = assay: WNT transcriptional reporter assay (Super(8×)TOPflash luciferase, HEK293T cells); assay type: cell-based; settings: Homo sapiens, HEK-293T, Wnt3A-expressing vector, 20 hrs, relative to cells treated with DMSO alone, read-out: Wnt transcription potency
Source text: Commercially available Super(8×)TOPflash vector driven by a (7×) TCF-firefly luciferase response element was transiently transfected into HEK293T cells, together with a TK-driven Renilla luciferase plasmid as an internal control to normalize the luminescence signal and a Wnt3A-expressing vector as the source of pathway activation. HEK293T cells were transfected with plasmids in DMEM plus 10% fetal bovine serum (FBS) for 8 hr, replated to 96-well plates in DMEM plus 10% FBS followed by treatment with compounds (1.6 nM to 5 M) (DMSO final concentration is 0.5%) for 20 hrs. Firefly and Renilla luciferase activities were measured and normalized by the Renilla luciferase values.

[2] = implants of hMSCs induced 8 days with compound (500 nM) and TCP ceramic matrix, intramuscular, mice, 8 weeks

SMILES	solubility in water (Solubility in water)	osteoid score (0-4), median and 75th percentile, versus non-induced hMSCs on TCP matrix or TCP matrix alone ([1]; blinded observers, H&E sections, 8 weeks post-implantation)	osteoid in the ROI relative to implants comprised of TCP alone (densitometry) [1, 2] [fold]	osteoid in the ROI relative to implants of non-induced hMSCs and TCP ceramic matrix (densitometry) [1, 2] [fold]	EC50 (Wnt transcription) [nM]
CC(C)[C@H](N)C(=O)Oc1ccc(C=CC(=O)C=C(O)C=Cc2ccc(OC(=O)[C@@H](N)C(C)C)cc2)cc1 [Compound 3, (2S,2′S)—O,O′-(3-hydroxy-5-oxohepta-1,3,6-triene-1,7-diyl)bis(4,1-phenylene) bis(2-amino-3-methylbutanoate)]	greater than 10 mg/mL	significantly (p<0.005) higher	2.1	1.3	
CC(=O)N1c2ccc(C)cc2[C@H](Nc2ccc(C)cc2)C[C@@H]1C (relative stereo) [Compound 1, cis-1-acetyl-2,6-dimethyl-N-(p-methylphenyl)-1,2,3,4-tetrahydroquinolin-4-amine]					< 15
